The values that follow are results of earlier work, collected in patent US10751291B2, “Nanoparticulate compositions comprising interferon gamma and losartan for immunotherapy” (Yale University, priority 2013, dated 2020).

For the series the following is noted: oral administration.

Consider `CCCCc1nc(Cl)c(CO)n1Cc1ccc(-c2ccccc2-c2nn[nH]n2)cc1` [Losartan], for which the oral absorption result was “well absorbed”.
